Starred links: 1 amine or outer side, 2 acyl side, 3 side chain; linkers in the order of their positions; H or OH if unused. Non-standard residues stand in square brackets, D forms with d. Residues, ends and D or L forms follow the SMILES beside them. *: point of attachment. Oic = O=C(O)[C@@H]1C[C@@H]2CCCC[C@@H]2N1; Phe(4-Cl) = N[C@@H](Cc1ccc(Cl)cc1)C(=O)O; γGlu = O=C(O)[C@H](CCC(=O)[*:2])N[*:1]; d(β3hF) = N[C@@H](CC(=O)O)Cc1ccccc1; NMeR = CN[C@@H](CCCNC(=N)N)C(=O)O; Palmitoyl = CCCCCCCCCCCCCCCC(=O)*; Tridecanoyl = CCCCCCCCCCCCC(=O)*; hArg = N=C(N)NCCCC[C@H](N)C(=O)O; Cha = N[C@@H](CC1CCCCC1)C(=O)O; αMeL = CC(C)C[C@](C)(N)C(=O)O; Aic = NC1(C(=O)O)Cc2ccccc2C1; Tle = CC(C)(C)[C@H](N)C(=O)O; αMeP = C[C@@]1(C(=O)O)CCCN1; β3hV = CC(C)[C@H](N)CC(=O)O; β3hP = O=C(O)C[C@@H]1CCCN1; Pip = O=C(O)[C@@H]1CCCCN1; Nle = CCCC[C@H](N)C(=O)O; Orn = NCCC[C@H](N)C(=O)O; AEEA = NCCOCCOCC(=O)O; Aib = CC(C)(N)C(=O)O; Inp = O=C(O)C1CCNCC1
What was measured:
Format in all cases: in vitro ADME
[1] = In vitro stability in rat liver homogenate; settings: tissue homogenate
Procedure, shortened: (§1)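 Peptide 5 μM final; rat plasma / liver homog. / kidney homog.; 37° C., 4 hr. Quench MeOH + IS, vortex 15 min RT, spin 5500 g 15 min; supernatant by HR LC-MS.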

[2] = In vitro stability in rat plasma
Procedure, shortened: as §1

[3] = In vitro stability in rat kidney homogenate; settings: rat, tissue homogenate
Experimental: Apelin peptides were spiked into rat plasma, liver homogenate, and kidney homogenate, which were obtained from commercial sources, to a final concentration of 5 μM. The samples were then incubated at 37° C. over a period of 4 hr. […] In a typical experiment, an aliquot of 100 μL of sample was taken from the incubation vial, followed by addition of 300 μL of MeOH containing internal standard. The quenched sample was centrifuged at 5500 g for 15 min after 15 min vortex in room temperature. The supernatant was then analyzed by high resolution LC-MS. […] In vitro plasma, […], and kidney stability results are shown below in Table 14.

Row | Structure (SMILES) | remaining at 4 h, 5 μM [1] | remaining at 4 h, 5 μM [2] | remaining at 4 h, 5 μM [3]
1 | CCCCCCCCCCCCC(=O)N[C@@H](CCC(=O)NCCOCCOCC(=O)NCCOCCOCC(=O)N[C@H](CCC(N)=O)C(=O)N[C@@H](CCCNC(=N)N)C(=O)N1CCC[C@H]1C(=O)N(C)[C@@H](CCCNC(=N)N)C(=O)N[C@@H](CC1CCCCC1)C(=O)N[C@@H](CO)C(=O)N[C@@H](Cc1c[nH]cn1)C(=O)N[C@@H](CCCCN)C(=O)NCC(=O)N1CCC[C@@]1(C)C(=O)N[C@@H](CCCC)C(=O)NC(C)(C)C(=O)N[C@@H](Cc1ccc(Cl)cc1)C(=O)O)C(=O)O [compound 498] ({Tridecanoyl-γGlu-AEEA-AEEA}-[dQ]RP[NMeR][Cha]SHKG[αMeP][Nle][Aib][Phe(4-Cl)]-OH) | > 90% | > 90% | 23%
2 | CCCCCCCCCCCCC(=O)N[C@@H](CCC(=O)NCCOCCOCC(=O)NCCOCCOCC(=O)N[C@H](CCC(N)=O)C(=O)N[C@@H](CCCNC(=N)N)C(=O)N1CCC[C@@]1(C)C(=O)N[C@@H](CCCCNC(=N)N)C(=O)N[C@H](CC(=O)N[C@@H](CO)C(=O)N[C@@H](Cc1c[nH]cn1)C(=O)N[C@@H](CCCCN)C(=O)NCC(=O)N1[C@H](C(=O)N[C@@H](CCCC)C(=O)N2CCC[C@@]2(C)C(=O)N[C@@H](Cc2ccc(Cl)cc2)C(=O)O)C[C@@H]2CCCC[C@@H]21)C(C)C)C(=O)O [compound 502] ({Tridecanoyl-γGlu-AEEA-AEEA}-[dQ]R[αMeP][hArg][β3hV]SHKG[Oic][Nle][αMeP][Phe(4-Cl)]-OH) | 34% | > 90% | 19%
3 | CCCC[C@H](NC(=O)[C@@H]1CCCN1C(=O)CNC(=O)[C@H](CCCCN)NC(=O)[C@H](Cc1c[nH]cn1)NC(=O)[C@H](CO)NC(=O)[C@](C)(CC(C)C)NC(=O)[C@H](CCCNC(=N)N)N(C)C(=O)[C@@H]1CCCN1C(=O)[C@H](CCCCNC(=N)N)NC(=O)[C@H](CCC(N)=O)NC(C)=O)C(=O)N1CCC[C@H]1C(=O)N[C@@H](Cc1ccc(Cl)cc1)C(=O)O [compound 71] | 35.5% | 0% | 0.1%
4 | CCCCCCCCCCCCC(=O)N[C@@H](CCC(=O)NCCOCCOCC(=O)NCCOCCOCC(=O)N[C@@H](CCC(N)=O)C(=O)N[C@@H](CCCNC(=N)N)C(=O)N1CCC[C@H]1C(=O)N(C)[C@@H](CCCNC(=N)N)C(=O)N[C@@](C)(CC(C)C)C(=O)N[C@@H](CO)C(=O)N[C@@H](Cc1c[nH]cn1)C(=O)N[C@@H](CCCCN)C(=O)NCC(=O)N1CCC[C@@]1(C)C(=O)N[C@@H](CCCC)C(=O)N1CCC[C@H]1C(=O)N[C@@H](Cc1ccc(Cl)cc1)C(=O)O)C(=O)O [compound 387] | 4% | 73% | 1%
5 | CCCCCCCCCCCCC(=O)N[C@@H](CCC(=O)NCCOCCOCC(=O)NCCOCCOCC(=O)N[C@@H](CCC(N)=O)C(=O)N[C@@H](CCCNC(=N)N)C(=O)N1CCC[C@H]1C(=O)N(C)[C@@H](CCCNC(=N)N)C(=O)N[C@@H](CC1CCCCC1)C(=O)N[C@@H](CO)C(=O)N[C@@H](Cc1c[nH]cn1)C(=O)N[C@@H](CCCCN)C(=O)NCC(=O)N1[C@H](C(=O)N[C@@H](CCCC)C(=O)N2CCC[C@H]2C(=O)N[C@@H](CC(=O)O)Cc2ccccc2)C[C@@H]2CCCC[C@@H]21)C(=O)O [compound 380] ({Tridecanoyl-γGlu-AEEA-AEEA}-QRP[NMeR][Cha]SHKG[Oic][Nle]P[d(β3hF)]-OH) | 2% | 97% | 1%
6 | CCCCCCCCCCCCC(=O)N[C@@H](CCC(=O)NCCOCCOCC(=O)NCCOCCOCC(=O)N[C@H](CCC(N)=O)C(=O)N[C@@H](CCCNC(=N)N)C(=O)N1CCC[C@H]1CC(=O)N(C)[C@@H](CCCNC(=N)N)C(=O)N[C@@](C)(CC(C)C)C(=O)N[C@@H](CO)C(=O)N[C@@H](Cc1c[nH]cn1)C(=O)N[C@@H](CCCCN)C(=O)NCC(=O)N1[C@H](C(=O)N[C@@H](CCCC)C(=O)N2CCC[C@@]2(C)C(=O)N[C@@H](Cc2ccc(Cl)cc2)C(=O)O)C[C@@H]2CCCC[C@@H]21)C(=O)O [compound 553] ({Tridecanoyl-γGlu-AEEA-AEEA}-[dQ]R[β3hP][NMeR][αMeL]SHKG[Oic][Nle][αMeP][Phe(4-Cl)]-OH) | 29% | > 90% | 15%
7 | CCCCCCCCCCCCC(=O)N[C@@H](CCC(=O)NCCOCCOCC(=O)NCCOCCOCC(=O)N[C@@H](CCCNC(=N)N)C(=O)N[C@@H](CCC(N)=O)C(=O)N[C@@H](CCCNC(=N)N)C(=O)N1CCC[C@H]1C(=O)N[C@@H](CCCC)C(=O)N[C@@H](CC1CCCCC1)C(=O)N[C@@H](C)C(=O)N[C@@H](Cc1c[nH]cn1)C(=O)N[C@@H](CCCCN)C(=O)NCC(=O)N1[C@H](C(=O)N[C@@H](CCCC)C(=O)N2CCC[C@H]2C(=O)N[C@@H](Cc2ccc(Cl)cc2)C(=O)O)C[C@@H]2CCCC[C@@H]21)C(=O)O [compound 344] ({Tridecanoyl-γGlu-AEEA-AEEA}-RQRP[Nle][Cha]AHKG[Oic][Nle]P[Phe(4-Cl)]-OH) | 6% | 88% | 0%
8 | CCCCCCCCCCCCCCCC(=O)N[C@@H](CCC(=O)NCCOCCOCC(=O)NCCOCCOCC(=O)N[C@H](CCC(N)=O)C(=O)N[C@@H](CCCNC(=N)N)C(=O)N1CCC[C@H]1C(=O)N(C)[C@@H](CCCNC(=N)N)C(=O)N[C@@H](CC1CCCCC1)C(=O)N[C@@H](CO)C(=O)N[C@@H](Cc1c[nH]cn1)C(=O)N[C@@H](CCCCN)C(=O)NCC(=O)N1[C@H](C(=O)N[C@@H](CCCC)C(=O)N2CCC(C(=O)N[C@@H](Cc3ccc(Cl)cc3)C(=O)O)CC2)C[C@@H]2CCCC[C@@H]21)C(=O)O [compound 587] ({Palmitoyl-γGlu-AEEA-AEEA}-[dQ]RP[NMeR][Cha]SHKG[Oic][Nle][Inp][Phe(4-Cl)]-OH) | 64% | > 90% | 34%
9 | CCCCCCCCCCCCC(=O)N[C@@H](CCC(=O)NCCOCCOCC(=O)NCCOCCOCC(=O)N[C@@H](CCC(N)=O)C(=O)N1CCC[C@H]1CC(=O)N(C)[C@@H](CCCNC(=N)N)C(=O)N[C@@H](CC1CCCCC1)C(=O)N[C@@H](CO)C(=O)N[C@@H](Cc1c[nH]cn1)C(=O)N[C@@H](CCCCN)C(=O)NCC(=O)N1[C@H](C(=O)N[C@@H](CCCC)C(=O)NC(C)(C)C(=O)N[C@@H](Cc2ccc(Cl)cc2)C(=O)O)C[C@@H]2CCCC[C@@H]21)C(=O)O [compound 550] ({Tridecanoyl-γGlu-AEEA-AEEA}-Q[β3hP][NMeR][Cha]SHKG[Oic][Nle][Aib][Phe(4-Cl)]-OH) | 2% | > 90% | < 1%
10 | CCCCCCCCCCCCC(=O)N[C@@H](CCC(=O)NCCOCCOCC(=O)NCCOCCOCC(=O)N[C@@H](CCCN)C(=O)N[C@@H](Cc1ccccc1)C(=O)N[C@@H](CCCCNC(=N)N)C(=O)N[C@@H](CCCCNC(=N)N)C(=O)N[C@H](CC(=O)N[C@@H](CCCCNC(=N)N)C(=O)N1CCC[C@H]1C(=O)N[C@@H](CCCCNC(=N)N)C(=O)N[C@@H](CC1CCCCC1)C(=O)N[C@@H](CO)C(=O)N[C@@H](Cc1c[nH]cn1)C(=O)N[C@@H](CCCCN)C(=O)NCC(=O)N1[C@H](C(=O)N[C@@H](CCCC)C(=O)N2CCC[C@H]2C(=O)N[C@@H](Cc2ccc(Cl)cc2)C(=O)O)C[C@@H]2CCCC[C@@H]21)C(C)C)C(=O)O [compound 307] ({Tridecanoyl-γGlu-AEEA-AEEA}-[Orn]F[hArg][hArg][β3hV][hArg]P[hArg][Cha]SHKG[Oic][Nle]P[Phe(4-Cl)]-OH) | 66.8% | > 90% | 13.8%
11 | CCCCCCCCCCCCC(=O)N[C@@H](CCC(=O)NCCOCCOCC(=O)NCCOCCOCC(=O)N[C@H](CCC(N)=O)C(=O)N[C@@H](CCCCNC(=N)N)C(=O)N1CCC[C@H]1C(=O)N[C@H](CCCNC(=N)N)C(=O)N[C@@H](CC1CCCCC1)C(=O)N[C@@H](CO)C(=O)N[C@@H](Cc1c[nH]cn1)C(=O)N[C@@H](CCCCN)C(=O)N[C@H](C(=O)N1[C@H](C(=O)N[C@@H](CCCC)C(=O)N2CCC[C@H]2C(=O)N[C@@H](Cc2ccc(Cl)cc2)C(=O)O)C[C@@H]2CCCC[C@@H]21)C(C)(C)C)C(=O)O [compound 371] ({Tridecanoyl-γGlu-AEEA-AEEA}-[dQ][hArg]P[dR][Cha]SHK[Tle][Oic][Nle]P[Phe(4-Cl)]-OH) | 81% | 90% | 28%
12 | CCCCCCCCCCCCCCCC(=O)N[C@@H](CCC(=O)NCCOCCOCC(=O)NCCOCCOCC(=O)N[C@H](CCC(N)=O)C(=O)N[C@@H](CCCNC(=N)N)C(=O)N1CCC[C@H]1C(=O)N(C)[C@@H](CCCNC(=N)N)C(=O)N[C@@H](CC1CCCCC1)C(=O)N[C@@H](CO)C(=O)N[C@@H](Cc1c[nH]cn1)C(=O)N[C@@H](CCCCN)C(=O)NCC(=O)N1CCCC[C@H]1C(=O)N[C@@H](CCCC)C(=O)N1CCC[C@H]1C(=O)NC1(C(=O)O)Cc2ccccc2C1)C(=O)O [compound 590] ({Palmitoyl-γGlu-AEEA-AEEA}-[dQ]RP[NMeR][Cha]SHKG[Pip][Nle]P[Aic]-OH) | 11% | 86% | 4%
13 | CCCCCCCCCCCCC(=O)N[C@@H](CCC(=O)NCCOCCOCC(=O)NCCOCCOCC(=O)N[C@H](CCC(N)=O)C(=O)N[C@@H](CCCNC(=N)N)C(=O)N1CCC[C@@]1(C)C(=O)N[C@@H](CCCCNC(=N)N)C(=O)N[C@H](CC(=O)N[C@@H](CO)C(=O)N[C@@H](Cc1c[nH]cn1)C(=O)N[C@@H](CCCCN)C(=O)NCC(=O)N1CCCC[C@H]1C(=O)N[C@@H](CCCC)C(=O)N1CCC[C@@]1(C)C(=O)N[C@@H](Cc1ccc(Cl)cc1)C(=O)O)C(C)C)C(=O)O [compound 503] ({Tridecanoyl-γGlu-AEEA-AEEA}-[dQ]R[αMeP][hArg][β3hV]SHKG[Pip][Nle][αMeP][Phe(4-Cl)]-OH) | 7% | 85% | 2%
